Laboratory results as given in patent US20250388575A1, “HETEROBIFUNCTIONAL COMPOUNDS AND METHODS OF TREATING DISEASE” (Halda Therapeutics OpCo, Inc., priority 2022, published 2025).

How the values were obtained:
BRD4-BD2 = BRD4-BD2 (Homo sapiens (Human), UniProt O60885); test: bromoKdELECT assay for binding affinity to BRD4-BD2; settings: 11-point 3-fold dilution
[1] = test system: T-Rex 293 cell line SC cells having increased expression of progesterone receptor isoform B protein; test: Cellular growth inhibition, T-Rex 293 SC cells with increased progesterone receptor isoform B expression (doxycycline), CellTiter-Glo; assay type: cell-based; settings: progesterone receptor isoform B induced with 10 ng/mL doxycycline, 72 hours
Method: The following types of cells were prepared for this experiment: (i) a T-Rex 293 cell line having increased expression of progesterone receptor isoform B protein due to exposure to doxycycline and (ii) a T-Rex 293 cell line lacking increased expression of progesterone receptor isoform B protein. Ability of the test compounds to inhibit proliferation of the foregoing cell types was evaluated according to the procedures set forth below.
The doxycycline-inducible progesterone receptor isoform B protein expressing cell line was established using the following protocol: T-Rex 293 cells were purchased from Invitrogen (Cat #R71007) and transfected using Lipofectamine 2000 with the wild-type progesterone receptor B protein sequence cloned into the pcDNA4/TO vector. Transfected cells were selected using 400 μg/mL Zeocin (Invitrogen Cat #R25001). Following selection, single clones were raised and maintained in Dulbecco's Modified Eagle Medium (DMEM) supplemented with 10% w/w Tetracycline-free fetal bovine serum (FBS) and 250 μg/mL Zeocin. Clones were analyzed for expression of progesterone receptor isoform B protein in the presence and absence of 10 ng/ml doxycycline (Sigma Cat #D9891), and a single doxycycline-inducible clone (hereinafter “SC”) was selected for use in downstream assays.
The SC cells were seeded on poly-D-lysine coated, black clear-bottom 384-well plates at 2500/well, in 25 μL Phenol Red Free Dulbecco's Modified Eagle Medium (DMEM) supplemented with 10% w/w charcoal-dextran treated fetal bovine serum (FBS) and 1% w/w pen-strep, with or without 10 ng/mL doxycycline. Pen-Strep is a commercially available mixture of penicillin G and streptomycin, which is used in mammalian cell culture media to prevent bacterial contamination. Phenol Red Free Dulbecco's Modified Eagle Medium (DMEM) supplemented with 10% w/w charcoal-dextran treated fetal bovine serum (FBS) and 1% w/w pen-strep, with or without 10 ng/mL doxycycline is herein referred to as Treatment Medium. Following seeding of cells in the plates, the plates were spun at 300×g for 30 seconds, then equilibrated to room temperature for 30 minutes, and then deposited in a humidified tissue culture incubator maintained at 37° C. with 5% CO2.
At 24 hours after seeding of the cells, dilutions of test compound were prepared in DMSO and dissolved in Treatment Medium, to achieve a final DMSO concentration of 0.5% w/w, thereby providing the Test Compound Solution. A 25 μL aliquot of the Test Compound Solution was added to cells in the well plates. An equal volume of a solution containing DMSO and Treatment Medium was used as a negative control. Following treatment of cells with Test Compound Solution or said equal volume of a solution containing DMSO and Treatment Medium, the plates were spun at 300×g for 30 seconds, and then left in an incubator for 72 hours.
At the end of the treatment duration, cell viability was quantified with CellTiter-Glo 2.0 reagent (Promega Cat #G9243). For this purpose, plates were equilibrated to room temperature for 30 minutes, and then 25 μL of CellTiter-Glo 2.0 reagent was added to cells in the plate wells. Plates were then agitated on a shaker for two minutes at 500 rpm and subsequently incubated at room temperature for 10 minutes. Following incubation, the plates were spun at 3000×g for 30 seconds, then sealed with an optical adhesive cover, and luminescence readings were measured with an EnVision Plate Reader (Perkin Elmer).
Data was normalized using zero luminescence for baseline. A four-parameter non-linear regression curve fit was applied to dose-response data in GraphPad Prism data analysis software to determine the half-maximal growth inhibitory concentration (GI50) for each test compound.

T47D cells = test: Cellular growth inhibition assay for T47D cells, CellTiter-Glo; assay type: cell-based, human; settings: 72 hours treatment, CellTiter-Glo 2.0
Summary of the method: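 Growth inhibition as GI50, fitted with four parameters to CellTiter-Glo luminescence after 72 h of compound exposure (0.5% DMSO). Cells were T47D, grown in insulin-supplemented (0.2 units/mL) DMEM with 10% FBS and treated one day post-seeding.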

| Structure (SMILES) | Kd (BRD4-BD2) [nM] | GI50 (T47D cells; Homo sapiens) [nM] | GI50 (T47D cells) [nM] | GI50 [1] [nM] |
| --- | --- | --- | --- | --- |
| Cn1cc(-c2cc(C(C)(C)O)ccc2Oc2ccc(CCC3CCN(c4ccc(C(=O)N[C@H]5CC[C@H](Oc6ccc(C#N)c(Cl)c6)CC5)nn4)CC3)cc2)c2cc[nH]c2c1=O [I-102] | > 2500 | – | – | < 500 |
| Cn1cc(-c2cc(C(C)(C)O)ccc2O[C@H]2C[C@H](N(C)CC3CCN(c4ccc(C(=O)N[C@H]5CC[C@H](Oc6ccc(C#N)c(Cl)c6)CC5)nn4)CC3)C2)c2cc[nH]c2c1=O [I-158, N-((1r,4r)-4-(3-chloro-4-cyanophenoxy)cyclohexyl)-6-(4-((((1r,3r)-3-(4-(2-hydroxypropan-2-yl)-2-(6-methyl-7-oxo-6,7-dihydro-1H-pyrrolo[2,3-c]pyridin-4-yl)phenoxy)cyclobutyl)(methyl)amino)methyl)piperidin-1-yl)pyridazine-3-carboxamide] | 50 to 500 | < 500 | – | – |
| CCS(=O)(=O)c1ccc(Oc2cccc(CCCOC3CC4(C3)CN(c3ccc(C(=O)N[C@H]5CC[C@H](Oc6ccc(C#N)c(Cl)c6)CC5)nn3)C4)c2F)c(-c2cn(C)c(=O)c3[nH]ccc23)c1 [I-46] | 500 to 2500 | < 500 | – | < 500 |
| CCS(=O)(=O)Nc1ccc(Oc2cccc(OCCOC3CCN(c4ccc(C(=O)N[C@H]5CC[C@H](Oc6ccc(C#N)c(Cl)c6)CC5)nn4)CC3)c2)c(-c2cn(C)c(=O)c3[nH]ccc23)c1 [I-1, N-[4-(3-chloro-4-cyano-phenoxy)cyclohexyl]-6-[4-[2-[3-[4-(ethylsulfonylamino)-2-(6-methyl-7-oxo-1H-pyrrolo[2,3-c]pyridin-4-yl)phenoxy]phenoxy]ethoxy]-1-piperidyl]pyridazine-3-carboxamide] | – | < 500 | – | < 500 |
| Cn1cc(-c2cc(C(C)(C)O)ccc2Oc2ccc(OC3CN(c4ccc(C(=O)N[C@H]5CC[C@H](Oc6ccc(C#N)c(Cl)c6)CC5)nn4)C3)cc2)c2cc[nH]c2c1=O [I-95, N-[4-(3-chloro-4-cyano-phenoxy)cyclohexyl]-6-[3-[4-[4-(1-hydroxy-1-methyl-ethyl)-2-(6-methyl-7-oxo-1H-pyrrolo[2,3-c]pyridin-4-yl)phenoxy]phenoxy]azetidin-1-yl]pyridazine-3-carboxamide] | 500 to 2500 | 500 to 1500 | – | < 500 |

The next lines start with results.

| Kd (BRD4-BD2) [nM] | GI50 (T47D cells; Homo sapiens) [nM] | GI50 (T47D cells) [nM] | Structure (SMILES) | GI50 [1] [nM] |
| --- | --- | --- | --- | --- |
| 500 to 2500 | – | < 500 | CCS(=O)(=O)c1ccc(Oc2cc(F)c(CCC3CCN(c4ccc(C(=O)N[C@H]5CC[C@H](Oc6ccc(C#N)c(Cl)c6)CC5)nn4)CC3)cc2F)c(-c2cn(C)c(=O)c3[nH]ccc23)c1 [I-59] | < 500 |
| 500 to 2500 | < 500 | – | Cn1cc(-c2cc(C(C)(C)O)ccc2Oc2c(F)cc(CCOC3CCN(c4ccc(C(=O)N[C@H]5CC[C@H](Oc6ccc(C#N)c(Cl)c6)CC5)nn4)CC3)cc2F)c2cc[nH]c2c1=O [I-109] | – |
| 50 to 500 | – | < 500 | CCS(=O)(=O)c1ccc(Oc2cccc(CCCC3CCN(c4ccc(C(=O)N[C@H]5CC[C@H](Oc6ccc(C#N)c(Cl)c6)CC5)nn4)CC3)c2F)c(-c2cn(C)c(=O)c3[nH]ccc23)c1 [I-52] | – |
| 50 to 500 | < 500 | – | CCS(=O)(=O)c1ccc(Oc2cccc(CCC3CCN(c4ccc(C(=O)N[C@H]5CC[C@H](Oc6ccc(C#N)c(Cl)c6)CC5)nn4)CC3)c2F)c(-c2cn(C)c(=O)c3[nH]ccc23)c1 [I-51] | – |
